Assay results reported in the CheMixHub ionic liquid set.

Test: xn = mol fraction of the nth substance listed

CC[n+]1ccn(C)c1.O=S(=O)([O-])O + Cc1ncc(C[n+]2csc(CCO)c2C)c(N)n1.Cl.[Cl-] + O
viscosity [mPa·s], 100 kPa
Conditions	293.15 K	298.15 K	303.15 K	308.15 K	313.15 K	318.15 K
x2 = 0, x1 = 0.0009002	1.05	0.94	0.84	0.76	0.69	0.65
x2 = 0, x1 = 0.001799	1.07	0.95	0.85	0.77	0.7	0.64
x2 = 0, x1 = 0.002696	1.08	0.96	0.86	0.78	0.71	0.64
x2 = 0.0002717, x1 = 0.0008999	1.06	0.95	0.85	0.77	0.7	0.66
x2 = 0.0002739, x1 = 0.001798	1.08	0.96	0.86	0.78	0.71	0.65
x2 = 0.0002783, x1 = 0.002695	1.09	0.97	0.87	0.79	0.72	0.65
x2 = 0.0005451, x1 = 0.0008997	1.07	0.96	0.85	0.78	0.71	0.67
x2 = 0.0005496, x1 = 0.001798	1.09	0.97	0.87	0.79	0.72	0.66
x2 = 0.0005575, x1 = 0.002694	1.1	0.98	0.88	0.8	0.73	0.66
x2 = 0.0008249, x1 = 0.001797	1.1	0.98	0.88	0.8	0.73	0.67
x2 = 0.0008327, x1 = 0.002693	1.11	0.99	0.89	0.81	0.73	0.67
x2 = 0.0008356, x1 = 0.0008994	1.08	0.97	0.86	0.79	0.72	0.68
x2 = 0.00109, x1 = 0.0008992	1.09	0.98	0.87	0.8	0.73	0.68
x2 = 0.001102, x1 = 0.001797	1.11	0.98	0.89	0.81	0.74	0.68
x2 = 0.001112, x1 = 0.002693	1.12	1	0.9	0.81	0.74	0.68
x2 = 0.001362, x1 = 0.000899	1.1	0.99	0.88	0.8	0.74	0.69
x2 = 0.001376, x1 = 0.001796	1.11	0.99	0.9	0.82	0.75	0.69
x2 = 0.001389, x1 = 0.002692	1.13	1.01	0.91	0.82	0.75	0.69
x2 = 0.001634, x1 = 0.0008987	1.1	1	0.89	0.81	0.75	0.7
x2 = 0.001651, x1 = 0.001796	1.12	1	0.91	0.83	0.76	0.7
x2 = 0.001665, x1 = 0.002691	1.14	1.02	0.92	0.83	0.76	0.7
x2 = 0.001907, x1 = 0.0008985	1.11	1.01	0.9	0.82	0.76	0.71
x2 = 0.001926, x1 = 0.001795	1.13	1.01	0.92	0.84	0.77	0.71
x2 = 0.001943, x1 = 0.00269	1.15	1.03	0.93	0.84	0.77	0.71

CCCC[n+]1ccn(C)c1.F[P-](F)(F)(F)(F)F + ClC(Cl)Cl
298.15 K, 101 kPa
Conditions	electrical conductivity [S/m]	viscosity [mPa·s]
x2 = 0	0.157	260
x2 = 0.0857	0.199	200
x2 = 0.1741	0.253	144
x2 = 0.2614	0.319	103
x2 = 0.3625	0.411	68.4
x2 = 0.4608	0.519	43
x2 = 0.5633	0.644	25
x2 = 0.6683	0.726	13.1
x2 = 0.7326	0.729	10

CCCC[n+]1ccn(C)c1.O=S(=O)([N-]S(=O)(=O)C(F)(F)F)C(F)(F)F + ClCCl
Conditions	viscosity [mPa·s]
298 K, 101 kPa, x2 = 0	50.4

CC#N + Cn1cc[n+](CCCN)c1.F[B-](F)(F)F
101 kPa, x2 = 0
Conditions	viscosity [mPa·s]
288.15 K	0.439
293.15 K	0.403
298.15 K	0.371
303.15 K	0.345
308.15 K	0.322
313.15 K	0.3
318.15 K	0.282
323.15 K	0.265

CCCC[n+]1ccn(C)c1.O=S(=O)([N-]S(=O)(=O)C(F)(F)F)C(F)(F)F + N
Conditions	viscosity [mPa·s]
313.2 K, 101 kPa, x1 = 1	27.3

CCCC[n+]1ccn(C)c1.F[P-](F)(F)(F)(F)F + NCCO
101 kPa
Conditions	electrical conductivity [S/m]	viscosity [mPa·s]
288.15 K, x2 = 0.8022	0.1847	45
288.15 K, x2 = 0.9028	0.1368	36
293.15 K, x2 = 0.3052	0.222	103
293.15 K, x2 = 0.387	0.236	–
293.15 K, x2 = 0.5871	0.268	–
293.15 K, x2 = 0.9592	0.1028	–
298.15 K, x2 = 0	0.1851	182
298.15 K, x2 = 0.2113	0.256	92
298.15 K, x2 = 0.3052	0.292	76
298.15 K, x2 = 0.5352	0.337	–
298.15 K, x2 = 0.8022	0.313	26
303.15 K, x2 = 0.6984	0.434	26
308.15 K, x2 = 0.387	0.506	–
308.15 K, x2 = 0.4282	0.511	35
308.15 K, x2 = 0.4761	0.541	–
313.15 K, x2 = 0.3052	0.602	35
313.15 K, x2 = 0.4761	0.669	–
313.15 K, x2 = 0.5352	0.679	–
313.15 K, x2 = 0.9592	0.25	–
318.15 K, x2 = 0.3052	0.733	28
318.15 K, x2 = 0.4282	0.773	22.1
318.15 K, x2 = 0.4918	0.796	19.5
323.15 K, x2 = 0	0.504	48
323.15 K, x2 = 0.3052	0.875	23.1
323.15 K, x2 = 0.4761	0.967	–
323.15 K, x2 = 0.5352	0.977	–

CCCC[n+]1ccn(C)c1.O=S(=O)([N-]S(=O)(=O)C(F)(F)F)C(F)(F)F + Nc1ccccc1
100 kPa, x2 = 0
Conditions	viscosity [mPa·s]
288.15 K	78.4
293.15 K	61.5
298.15 K	49.1
303.15 K	39.9
308.15 K	33.2
313.15 K	27.7
318.15 K	23.5
323.15 K	20.13
328.15 K	17.39
333.15 K	15.2
